Assay: Treatment-emergent adverse events, phase 1 single-rising-dose study in healthy subjects
Format: in vivo, human
Experimental: Healthy Japanese and non-Japanese subjects between 18 and 55 years of age were recruited to participate in the study. Criteria for exclusion included prior treatment with any investigational compound within 30 days of the first TAK-063 dose, a positive test for drugs of abuse or nicotine, and an increased risk for suicide. […] Following a washout period of 7 days, subjects in cohort 3 (100 mg) received the same dose (100 mg) but under fed conditions.
The study assessed safety and tolerability in all subjects for the 4-day study duration. The primary endpoints were the percentage of subjects who experienced at least one treatment-emergent adverse event (TEAE), as well as the percentage of subjects who met predefined criteria for safety laboratory tests, vital sign measurements, and safety parameters following TAK-063 administration. The secondary endpoints were PK parameters for TAK-063 and M-I, assessing drug exposure at each dose, and the effect of food coadministration on TAK-063 PK. Exploratory endpoints included the effects of TAK-063 on domains of cognition as assessed by a computerized battery, CNS Vital Signs (CNSVS).
Adverse events, clinical laboratory tests, vital signs, 12-lead electrocardiograms (ECGs), and Columbia-Suicide Severity Rating Scale (C-SSRS) were all monitored. Intensity of AEs was classified as mild, moderate, or severe, and each AE was classified as to its relation to study drug.
Laboratory tests evaluated hematology, serum chemistry, urine, and hormone levels. Vital signs and ECGs were collected at screening, check-in, within 1 h predose, serially postdose, and at study exit, while the C-SSRS was administered at screening, check-in, and study exit. Any events reported on the C-SSRS and clinically significant laboratory abnormalities were reported as AEs.

[1] = all subjects, single 30 mg dose (n = 11)
[2] = all subjects, single 100 mg dose (n = 11)
[3] = all subjects, single 300 mg dose (n = 11)
[4] = all subjects, single 1000 mg dose (n = 11)
[5] = non-Japanese subjects, TAK-063 Total (n = 36)
[6] = non-Japanese subjects, single 3 mg dose (n = 6)
[7] = non-Japanese subjects, single 10 mg dose (n = 6)
[8] = non-Japanese subjects, single 30 mg dose (n = 6)
[9] = non-Japanese subjects, single 100 mg dose (n = 6)
[10] = non-Japanese subjects, single 300 mg dose (n = 6)
[11] = non-Japanese subjects, single 1000 mg dose (n = 6)

SMILES: COc1cn(-c2ccc(-n3cccn3)cc2F)nc(-c2ccnn2-c2ccccc2)c1=O [TAK-063]
- Adverse event: Somnolence [1]: 4 (36.4) n (%)
- Adverse event: Vomiting [1]: 0 n (%)
- Adverse event: Anxiety [2]: 0 n (%)
- Adverse event: Blurred vision [2]: 0 n (%)
- Adverse event: Dizziness [2]: 0 n (%)
- Adverse event: Dysarthria [2]: 0 n (%)
- Adverse event: Epistaxis [2]: 0 n (%)
- Adverse event: Headache [2]: 1 (9.1) n (%)
- Adverse event: Hypotension [2]: 1 (9.1) n (%)
- Adverse event: Muscle tightness [2]: 0 n (%)
- Adverse event: Nausea [2]: 0 n (%)
- Adverse event: Orthostatic hypotension [2]: 1 (9.1) n (%)
- Adverse event: Orthostatic tachycardia [2]: 2 (18.2) n (%)
- Adverse event: Somnolence [2]: 7 (63.6) n (%)
- Adverse event: Vomiting [2]: 1 (9.1) n (%)
- Adverse event: Anxiety [3]: 0 n (%)
- Adverse event: Blurred vision [3]: 0 n (%)
- Adverse event: Dizziness [3]: 1 (9.1) n (%)
- Adverse event: Dysarthria [3]: 0 n (%)
- Adverse event: Epistaxis [3]: 0 n (%)
- Adverse event: Headache [3]: 1 (9.1) n (%)
- Adverse event: Hypotension [3]: 0 n (%)
- Adverse event: Muscle tightness [3]: 0 n (%)
- Adverse event: Nausea [3]: 0 n (%)
- Adverse event: Orthostatic hypotension [3]: 1 (9.1) n (%)
- Adverse event: Orthostatic tachycardia [3]: 1 (9.1) n (%)
- Adverse event: Somnolence [3]: 5 (45.5) n (%)
- Adverse event: Vomiting [3]: 1 (9.1) n (%)
- Adverse event: Anxiety [4]: 1 (9.1) n (%)
- Adverse event: Blurred vision [4]: 1 (9.1) n (%)
- Adverse event: Dizziness [4]: 1 (9.1) n (%)
- Adverse event: Dysarthria [4]: 1 (9.1) n (%)
- Adverse event: Epistaxis [4]: 0 n (%)
- Adverse event: Headache [4]: 0 n (%)
- Adverse event: Hypotension [4]: 0 n (%)
- Adverse event: Muscle tightness [4]: 0 n (%)
- Adverse event: Nausea [4]: 1 (9.1) n (%)
- Adverse event: Orthostatic hypotension [4]: 5 (45.5) n (%)
- Adverse event: Orthostatic tachycardia [4]: 7 (63.6) n (%)
- Adverse event: Somnolence [4]: 6 (54.5) n (%)
- Adverse event: Vomiting [4]: 1 (9.1) n (%)
- Total incidence of TEAEs (non-Japanese subjects treated with TAK-063): 52.8%
- Adverse event: Anxiety [5]: 1 (2.8) n (%)
- Adverse event: Blurred vision [5]: 1 (2.8) n (%)
- Adverse event: Dizziness [5]: 2 (5.6) n (%)
- Adverse event: Dysarthria [5]: 1 (2.8) n (%)
- Adverse event: Headache [5]: 1 (2.8) n (%)
- Adverse event: Hypotension [5]: 1 (2.8) n (%)
- Adverse event: Nausea [5]: 2 (5.6) n (%)
- Adverse event: Orthostatic hypotension [5]: 3 (8.3) n (%)
- Adverse event: Orthostatic tachycardia [5]: 8 (22.2) n (%)
- Adverse event: Somnolence [5]: 12 (33.3) n (%)
- Adverse event: Vomiting [5]: 1 (2.8) n (%)
- Adverse event: Anxiety [6]: 0 n (%)
- Adverse event: Blurred vision [6]: 0 n (%)
- Adverse event: Dizziness [6]: 0 n (%)
- Adverse event: Dysarthria [6]: 0 n (%)
- Adverse event: Headache [6]: 0 n (%)
- Adverse event: Hypotension [6]: 0 n (%)
- Adverse event: Nausea [6]: 0 n (%)
- Adverse event: Orthostatic hypotension [6]: 0 n (%)
- Adverse event: Orthostatic tachycardia [6]: 2 (33.3) n (%)
- Adverse event: Somnolence [6]: 0 n (%)
- Adverse event: Vomiting [6]: 0 n (%)
- Adverse event: Anxiety [7]: 0 n (%)
- Adverse event: Blurred vision [7]: 0 n (%)
- Adverse event: Dizziness [7]: 0 n (%)
- Adverse event: Dysarthria [7]: 0 n (%)
- Adverse event: Headache [7]: 0 n (%)
- Adverse event: Hypotension [7]: 0 n (%)
- Adverse event: Nausea [7]: 0 n (%)
- Adverse event: Orthostatic hypotension [7]: 0 n (%)
- Adverse event: Orthostatic tachycardia [7]: 0 n (%)
- Adverse event: Somnolence [7]: 0 n (%)
- Adverse event: Vomiting [7]: 0 n (%)
- Adverse event: Anxiety [8]: 0 n (%)
- Adverse event: Blurred vision [8]: 0 n (%)
- Adverse event: Dizziness [8]: 1 (16.7) n (%)
- Adverse event: Dysarthria [8]: 0 n (%)
- Adverse event: Headache [8]: 0 n (%)
- Adverse event: Hypotension [8]: 0 n (%)
- Adverse event: Nausea [8]: 2 (33.3) n (%)
- Adverse event: Orthostatic hypotension [8]: 0 n (%)
- Adverse event: Orthostatic tachycardia [8]: 0 n (%)
- Adverse event: Somnolence [8]: 3 (50.0) n (%)
- Adverse event: Vomiting [8]: 0 n (%)
- Adverse event: Anxiety [9]: 0 n (%)
- Adverse event: Blurred vision [9]: 0 n (%)
- Adverse event: Dizziness [9]: 0 n (%)
- Adverse event: Dysarthria [9]: 0 n (%)
- Adverse event: Headache [9]: 0 n (%)
- Adverse event: Hypotension [9]: 1 (16.7) n (%)
- Adverse event: Nausea [9]: 0 n (%)
- Adverse event: Orthostatic hypotension [9]: 0 n (%)
- Adverse event: Orthostatic tachycardia [9]: 2 (33.3) n (%)
- Adverse event: Somnolence [9]: 3 (50.0) n (%)
- Adverse event: Vomiting [9]: 0 n (%)
- Adverse event: Anxiety [10]: 0 n (%)
- Adverse event: Blurred vision [10]: 0 n (%)
- Adverse event: Dizziness [10]: 1 (16.7) n (%)
- Adverse event: Dysarthria [10]: 0 n (%)
- Adverse event: Headache [10]: 1 (16.7) n (%)
- Adverse event: Hypotension [10]: 0 n (%)
- Adverse event: Nausea [10]: 0 n (%)
- Adverse event: Orthostatic hypotension [10]: 0 n (%)
- Adverse event: Orthostatic tachycardia [10]: 0 n (%)
- Adverse event: Somnolence [10]: 3 (50.0) n (%)
- Adverse event: Vomiting [10]: 1 (16.7) n (%)
- Adverse event: Anxiety [11]: 1 (16.7) n (%)
- Adverse event: Blurred vision [11]: 1 (16.7) n (%)
- Adverse event: Dizziness [11]: 0 n (%)
- Adverse event: Dysarthria [11]: 1 (16.7) n (%)
- Adverse event: Headache [11]: 0 n (%)
- Adverse event: Hypotension [11]: 0 n (%)
- Adverse event: Nausea [11]: 0 n (%)
- Adverse event: Orthostatic hypotension [11]: 3 (50.0) n (%)
- Adverse event: Orthostatic tachycardia [11]: 4 (66.7) n (%)
- Adverse event: Somnolence [11]: 3 (50.0) n (%)
- Adverse event: Vomiting [11]: 0 n (%)
- Association with hyperprolactinemia, hyperglycemia, or other metabolic disturbances (single dose): not associated
- Deaths, serious AEs (single doses 3 to 1000 mg): No deaths or other serious AEs were reported
- Maximum tolerated dose (single doses up to 1000 mg): not defined
- Safety and tolerability (single doses up to 1000 mg): safe and well tolerated

Source: article PMC5063900, “A phase 1 study of the safety, tolerability, pharmacokinetics, and pharmacodynamics of TAK-063, a selective PDE10A inhibitor” (Psychopharmacology, 2016)
